The record followed here is patent US8809232B2, “Herbicidal compositions comprising 4-amino-3-chloro-5-fluoro-6-(4-chloro-2-fluoro-3-methoxyphenyl) pyridine-2-carboxylic acid or a derivative thereof and halosulfuron, pyrazosulfuron and esprocarb” (Dow Agrosciences LLC, priority 2012, dated 2014).

One test relates to BRAPP. Kind of test: Post-emergence foliar-applied herbicidal mixtures, greenhouse, direct seeded rice weeds. It is filed as in vivo. An excerpt: (§1) Seeds or nutlets of the desired test plant species were planted in a soil matrix prepared by mixing a loam or sandy loam soil (e.g., 28.6 percent silt, 18.8 percent clay, and 52.6 percent sand, with a pH of about 5.8 and an organic matter content of about 1.8 percent) and calcareous grit in an 80 to 20 ratio. The soil matrix was contained in plastic pots with a volume of 1 quart and a surface area of 83.6 square centimeters (cm^2). When required to ensure good germination and healthy plants, a fungicide treatment and/or other chemical or physical treatment was applied. The plants were grown for 8-22 days in a greenhouse with an approximate 14 hr photoperiod which was maintained at about 29° C. during the day and 26° C. during the night. Nutrients (Peters Excel® 15-5-15 5-Ca 2-Mg and iron chelate) were applied in the irrigation solution as needed and water was added on a regular basis. Supplemental lighting was provided with overhead metal halide 1000-Watt lamps as necessary. The plants were employed for testing when they reached the first through fourth true leaf stage.
(§2) Treatments consisted of the acid or esters of 4-amino-3-chloro-5-fluoro-6-(4-chloro-2-fluoro-3-methoxy-phenyl)pyridine-2-carboxylic acid (Compound A), each formulated as an SC (suspension concentrate), and various herbicidal components alone and in combination. Forms of compound A were applied on an acid equivalent basis.
(§3) Other herbicidal components were applied on an active ingredient basis and included the acetolactate synthase (ALS)-inhibiting herbicides halosulfuron-methyl formulated as Permit® 75 WDG, pyrazosulfuron-ethyl formulated as Agreen® WG or Sirius® G, and the VLCFA inhibiting herbicide esprocarb (technical grade material).
(§4) Treatment requirements were calculated based upon the rates being tested, the concentration of active ingredient or acid equivalent in the formulation, and a 12 mL application volume at a rate of 187 L/ha.
(§5) For treatments comprised of formulated compounds, measured amounts of compounds were placed individually in 25 mL glass vials and diluted in a volume of 1.25% (v/v) Agri-Dex® crop oil concentrated to obtain 12× stock solutions. […] Application solutions were prepared by adding an appropriate amount of each stock solution (e.g., 1 mL) and diluted to the appropriate final concentrations with the addition of 10 mL of an aqueous mixture of 1.25% (v/v) crop oil concentrate so that the final spray solutions contained 1.25+/−0.05% (v/v) crop oil concentrate.
(§6) For treatments comprised of technical compounds, weighed amounts can be placed individually in 25 mL glass vials and dissolved in a volume of 97:3 v/v acetone/DMSO to obtain 12× stock solutions. […] Application solutions can be prepared by adding an appropriate amount of each stock solution (e.g., 1 mL) and diluted to the appropriate final concentrations with the addition of 10 mL of an aqueous mixture of 1.5% (v/v) crop oil concentrate so that the final spray solutions contain 1.25% (v/v) crop oil concentrate. When technical materials are used, the concentrated stock solutions can be added to the spray solutions so that the final acetone and DMSO concentrations of the application solutions are 16.2% and 0.5%, respectively.
(§7) For treatments comprised of formulated and technical compounds, weighed amounts of the technical materials were placed individually in 25 mL glass vials and dissolved in a volume of 97:3 v/v acetone/DMSO to obtain 12× stock solutions, and measured amounts of the formulated compounds were placed individually in 25 mL glass vials and diluted in a volume of 1.5% (v/v) crop oil concentrate or water to obtain 12× stock solutions. […] Application solutions were prepared by adding an appropriate amount of each stock solution (e.g., 1 mL) and diluted to the appropriate final concentrations with the addition of an appropriate amount of an aqueous mixture of 1.5% (v/v) crop oil concentrate so that the final spray solutions contained 1.25% (v/v) crop oil concentrate. […]

The test system of another test is DIGSA. The test is described as above. The test is classed as in vivo, Digitaria sanguinalis (L.) Scop.
Source text: as §1, §2, §3, §4, §5, §6, §7

A further test has as its system ECHCO. Described as above. It is filed as in vivo, Echinochloa colona (L.) Link.
Source text: as §1, with “stage. […]” for “stage.”
as §4
For treatments comprised of formulated compounds, measured amounts of compounds were placed individually in 25 mL glass vials and diluted in a volume of 1.25% (v/v) Agri-Dex® crop oil concentrated to obtain 12× stock solutions. […]
For treatments comprised of formulated and technical compounds, weighed amounts of the technical materials were placed individually in 25 mL glass vials and dissolved in a volume of 97:3 v/v acetone/DMSO to obtain 12× stock solutions, and measured amounts of the formulated compounds were placed individually in 25 mL glass vials and diluted in a volume of 1.5% (v/v) crop oil concentrate or water to obtain 12× stock solutions. […]

In the next test the test system is ECHOR. Kind of test: In-water applied herbicidal mixtures, greenhouse, transplanted paddy rice weeds. The test is classed as in vivo, Echinochloa oryzoides (Ard.) Fritsch. The method, then:
(§8) Weed seeds or nutlets of the desired test plant species were planted in puddled soil (mud) prepared by mixing a shredded, non-sterilized mineral soil (50.5 percent silt, 25.5 percent clay, and 24 percent sand, with a pH of about 7.6 and an organic matter content of about 2.9 percent) and water at a 1:1 volumetric ratio. The prepared mud was dispensed in 365 mL aliquots into 16-ounce (oz.) non-perforated plastic pots with a surface area of 86.59 square centimeters (cm^2) leaving a headspace of 3 centimeters (cm) in each pot Mud was allowed to dry overnight prior to planting or transplanting. Rice seeds were planted in Sun Gro MetroMix® 306 planting mixture, which typically has a pH of 6.0 to 6.8 and an organic matter content of about 30 percent, in plastic plug trays. Seedlings at the second or third leaf stage of growth were transplanted into 840 mL of mud contained in 32-oz. non-perforated plastic pots with a surface area of 86.59 cm^2 4 days prior to herbicide application. The paddy was created by filling the headspace of the pots with 2.5 to 3 cm of water. When required to ensure good germination and healthy plants, a fungicide treatment and/or other chemical or physical treatment was applied. The plants were grown for 4-22 days in a greenhouse with an approximate 14 hr photoperiod which was maintained at about 29′C during the day and 26° C. during the night. Nutrients were added as Osmocote® (19:6:12, N:P:K^+ minor nutrients) at 2 g per 16-oz. pot and 4 g per 32-oz. pot. Water was added on a regular basis to maintain the paddy flood, and supplemental lighting was provided with overhead metal halide 1000-Watt lamps as necessary. The plants were employed for testing when they reached the first through fourth true leaf stage.
(§9) Treatments consisted of the acid or esters of 4-amino-3-chloro-5-fluoro-6-(4-chloro-2-fluoro-3-methoxy-phenyl)pyridine-2-carboxylic acid (compound A) each formulated as an SC (suspension concentrate) and various herbicidal components alone and in combination. Forms of compound A were applied on an acid equivalent basis.
(§10) Other herbicidal components were applied on an active ingredient basis and included acetolactate synthase (ALS)-inhibiting herbicides formulated as Permit® 75 WDG, pyrazosulfuron-ethyl formulated as Agreen® WG or Sirius® G, and VLCFA inhibiting herbicide esprocarb (technical grade material).
(§11) Treatment requirements for each compound or herbicidal component were calculated based upon the rates being tested, the concentration of active ingredient or acid equivalent in the formulation, an application volume of 2 mL per component per pot, and an application area of 86.59 cm^2 per pot.
(§12) For formulated compounds, a measured amount was placed in an individual 100 or 200 mL glass vial and was dissolved in a volume of 1.25% (v/v) Agri-Dex® crop oil concentrate to obtain application solutions.
(§13) For technical grade compounds, a weighed amount was placed in an individual 100 to 200 mL glass vial and was dissolved in a volume of acetone to obtain concentrated stock solutions. […] The concentrated stock solutions obtained were diluted with an equivalent volume of an aqueous mixture containing 2.5% (v/v) crop oil concentrate so that the final application solutions contained 1.25% (v/v) crop oil concentrate.
(§14) Applications were made by injecting with a pipetter appropriate amounts of the application solutions, individually and sequentially, into the aqueous layer of the paddy. Control plants were treated in the same manner with the solvent blank. Applications were made so that all treated plant material received the same concentrations of acetone and crop oil concentrate.
(§15) The treated plants and control plants were placed in a greenhouse as described above and water was added as needed to maintain a paddy flood. […]

A further test concerns SCPMA. Described as above. The test is classed as in vivo. How it is done:
as §8, §9, §10, §11, §12, §13, §14, §15

The test system of the next test is ECHCG. The description is as above. The test is classed as in vivo, Echinochloa crus-galli (L.) Beauv. How it is done:
as §8, with “Water was added on a regular basis to maintain the paddy flood, and supplemental lighting was provided with overhead metal halide 1000-Watt lamps as necessary. The plants were employed for testing when they reached the first through fourth true leaf stage.” left out
as §11
(§16) For formulated compounds, a measured amount was placed in an individual 100 or 200 mL glass vial and was dissolved in a volume of 1.25% (v/v) Agri-Dex® crop oil concentrate to obtain application solutions. […]

The next test relates to CYPRO. Described as above. It is filed as in vivo, Cyperus rotundus L. The method, then: as §8, §9, §10, §11, §12, §13, §14, §15
For another test, the system named is FIMMI. The description is as above. It is filed as in vivo, Fimbristylis miliacea (L.) Vahl. The method, then:
as §8, §9, §10, §11, §12, §13
Applications were made by injecting with a pipetter appropriate amounts of the application solutions, individually and sequentially, into the aqueous layer of the paddy. […]

In a further test the test system is SCPJU. Described as above. It is filed as in vivo, Schoenoplectus juncoides (Roxb.) Palla. The method, then:
as §8
Treatments consisted of the acid or esters of 4-amino-3-chloro-5-fluoro-6-(4-chloro-2-fluoro-3-methoxy-phenyl)pyridine-2-carboxylic acid (compound A) each formulated as an SC (suspension concentrate) and various herbicidal components alone and in combination. Forms of compound A were applied on an acid equivalent basis. […]
as §11, §16

A further test relates to LEFCH. Kind of test: Post-emergence foliar-applied herbicidal mixtures, greenhouse, direct seeded rice weeds. The test is classed as in vivo, Leptochloa chinensis (L.) Nees.
Source text: as §1, §2, §3, §4, §5, §6, §7

Take `COc1c(Cl)ccc(-c2nc(C(=O)O)c(Cl)c(N)c2F)c1F` [Compound A Acid, 4-amino-3-chloro-5-fluoro-6-(4-chloro-2-fluoro-3-methoxy-phenyl)pyridine-2-carboxylic acid]: the “Visual Weed Control (%) - 20 DAA BRAPP Obs” value with BRAPP (4.38 g ae/ha) turned out to be 50%. Besides, the “Visual Weed Control (%) - 22 DAA BRAPP Obs” value in the test with BRAPP (4.38 g ae/ha) turned out to be 45%. The results for the “Visual Weed Control (%) - 20 DAA DIGSA Obs” value in the test on DIGSA (21.2 g ae/ha) and with DIGSA (42.4 g ae/ha) were 10% and 25%, respectively. In addition, the “Visual Weed Control (%) - 22 DAA ECHCO Obs” value in the test with ECHCO (4.38 g ae/ha) is listed as 65%; in the test with ECHCO (8.75 g ae/ha), 80%. For the same compound, the “Visual Weed Control (%) - 22 DAA ECHOR Obs” value in the test on ECHOR (8.75 g ae/ha) amounted to 0%; in the test with ECHOR (17.5 g ae/ha), 0%; in the test with ECHOR (35 g ae/ha), 20%. For the same compound, the “Visual Weed Control (%) - 20 DAA ECHOR Obs” value was 18% with ECHOR (42.4 g ae/ha) and 33% in the test with ECHOR (84.8 g ae/ha). The “Visual Weed Control (%) - 22 DAA SCPMA Obs” value in the test on SCPMA (8.75 g ae/ha), in the test on SCPMA (17.5 g ae/ha) and in the test on SCPMA (35 g ae/ha) was 0% each time. Further, the “Visual Weed Control (%) - 20 DAA SCPMA Obs” value with SCPMA (42.4 g ae/ha) and in the test on SCPMA (84.8 g ae/ha) was 0% in each case. The entries for the “Visual Weed Control (%) - 21 DAA ECHCG Obs” value with ECHCG (8.75 g ae/ha) and in the test on ECHCG (17.5 g ae/ha) were 0% and 30%, respectively. For the same compound, the “Visual Weed Control (%) - 21 DAA CYPRO Obs” value in the test on CYPRO (8.75 g ae/ha) is recorded as 30%; with CYPRO (17.5 g ae/ha), 50%; with CYPRO (35 g ae/ha) it was 65%. Also, the figures for the “Visual Weed Control (%) - 21 DAA FIMMI Obs” value in the test with FIMMI (8.75 g ae/ha) and in the test on FIMMI (17.5 g ae/ha) were 0% and 95%, respectively. Also, the “Visual Weed Control (%) - 21 DAA SCPJU Obs” value with SCPJU (8.75 g ae/ha) was determined as 40%; in the test on SCPJU (17.5 g ae/ha), 60%.
In the case of `COC(=O)c1c(Cl)nn(C)c1S(=O)(=O)NC(=O)Nc1nc(OC)cc(OC)n1` [Halosulfuron-methyl, methyl 3-chloro-5-[[[[(4,6-dimethoxy-2-pyrimidinyl)amino]carbonyl]amino]sulfonyl]-1-methyl-1H-pyrazole-4-carboxylate, reference compound], the “Visual Weed Control (%) - 20 DAA BRAPP Obs” value in the test on BRAPP (4.38 g ai/ha), in the test on BRAPP (8.75 g ai/ha) and with BRAPP (17.5 g ai/ha) was 0% each time. The “Visual Weed Control (%) - 20 DAA DIGSA Obs” value with DIGSA (35 g ai/ha) was 10%. Further, the “Visual Weed Control (%) - 20 DAA LEFCH Obs” value is reported as 0% with LEFCH (8.75 g ai/ha), 0% with LEFCH (17.5 g ai/ha) and 5% in the test with LEFCH (35 g ai/ha). The “Visual Weed Control (%) - 21 DAA ECHOR Obs” value in the test on ECHOR (8.75 g ai/ha) and in the test with ECHOR (17.5 g ai/ha) was 0% in each case. Moreover, the “Visual Weed Control (%) - 20 DAA ECHOR Obs” value with ECHOR (35 g ai/ha) stood at 0%. In addition, in the test with SCPMA (35 g ai/ha), the “Visual Weed Control (%) - 20 DAA SCPMA Obs” value worked out at 65%. Also, the “Visual Weed Control (%) - 21 DAA ECHCG Obs” value with ECHCG (17.5 g ai/ha) is 0%. Moreover, the “Visual Weed Control (%) - 21 DAA CYPRO Obs” value amounted to 60% in the test on CYPRO (8.75 g ai/ha) and 100% in the test on CYPRO (17.5 g ai/ha).
